EPA's ToxValDB 9.5 (doi:10.2903/j.efsa.2013.3240)
Values after ≈ are worked out from the molar mass of the structure shown.

Legend:
Typhlodromus pyri = assay: LR50; higher = less toxic; details: acute; duration: 7 days; mortality
Aphidius rhopalosiphi = assay: LR50; higher = less toxic; details: acute; duration: 48 hours; mortality
Apis mellifera = details: acute; duration: 48 hours; oral; unspecified; mortality
Colinus virginianus = details: for NOEL: reproduction developmental, reproduction
Oncorhynchus mykiss = details: acute; duration: 96 hours; mortality
Bibionidae = details: chronic/long-term; duration: 28 days; other

## FC(F)(F)c1ccc(OCCCOc2c(Cl)cc(OCC=C(Cl)Cl)cc2Cl)nc1 [Pyridalyl]
Typhlodromus pyri
  LR50: > 600 g/ha
Aphidius rhopalosiphi
  LR50: 458 g/ha
Tagia sp.; acute, duration: 14 days, mortality
  LC50: > 1000 mg/kg
Tagia sp.; chronic/long-term, duration: 56 days, reproduction
  NOEC: 63 mg/kg
Apis mellifera
  LD50: > 100 µg/piece
Colinus virginianus; acute, oral, diet, mortality
  LC50: 334 mg/kg-day
Colinus virginianus; acute, oral, mortality
  LD50: > 2250 mg/kg-day
Colinus virginianus; F
  NOEL: 11.9 mg/kg-day
Colinus virginianus
  NOEL: 12.6 mg/kg-day
Neomysis kadiakensis; acute, duration: 96 hours, mortality
  LC50: 0.001 µg/mL (≈ 0.00204 µM)
Neomysis kadiakensis; chronic/long-term, duration: 28 days, reproduction
  NOEC: 0.45 µg/L
Oncorhynchus mykiss
  LC50: 0.5 µg/mL (≈ 1.02 µM)
Rattus norvegicus; acute, oral, mortality
  LD50: > 5000 mg/kg-day
Rattus norvegicus; chronic, duration: 2 years, body weight
  NOAEL: 3.4 mg/kg-day
Rattus norvegicus; reproduction developmental, body weight
  NOAEL: 2.8 mg/kg-day
Rattus norvegicus; subchronic, duration: 13 weeks, oral, hematological
  NOAEL: 5.6 mg/kg-day
Bibionidae
  NOEC: 12 µg/L
